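Following 48 hours of exposure in 96-well plates, responses at five concentrations were used to interpolate endpoints linearly. GI50 marks 50% less growth.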 The source made the active and inactive calls. No stated cut-off is given here; in the data, active = GI50 up to about 1.1 µM and inactive = higher.
Experiments:
Test in all cases: NCI tumour cell line growth inhibition, 48 h
[1] = test system: 786-0
[2] = test system: A498
[3] = test system: A549
[4] = test system: ACHN
[5] = test system: BT-549
[6] = test system: CAKI-1
[7] = test system: CCRF-CEM
[8] = test system: COLO 205
[9] = test system: DU-145
[10] = test system: EKVX
[11] = test system: HCC 2998
[12] = test system: HCT-116
[13] = test system: HCT-15
[14] = test system: HL-60
[15] = test system: HOP-62
[16] = test system: HOP-92
[17] = test system: HT-29
[18] = test system: Hs-578T
[19] = test system: IGROV-1
[20] = test system: KM12
[21] = test system: LOX IMVI
[22] = test system: M14
[23] = test system: MCF7
[24] = test system: MDA-MB-231
[25] = test system: MDA-MB-435
[26] = test system: MDA-N
[27] = test system: MOLT-4
[28] = test system: Malme-3M
[29] = test system: NCI-H226
[30] = test system: NCI-H23
[31] = test system: NCI-H460
[32] = test system: NCI-H522
[33] = test system: NCI/ADR-RES
[34] = test system: OVCAR-3
[35] = test system: OVCAR-4
[36] = test system: OVCAR-5
[37] = test system: OVCAR-8
[38] = test system: PC-3
[39] = test system: RPMI-8226
[40] = test system: RXF 393
[41] = test system: SF-268
[42] = test system: SF-295
[43] = test system: SF-539
[44] = test system: SK-MEL-28
[45] = test system: SK-MEL-2
[46] = test system: SK-MEL-5
[47] = test system: SK-OV-3
[48] = test system: SN12C
[49] = test system: SNB-19
[50] = test system: SNB-75
[51] = test system: SR
[52] = test system: SW-620
[53] = test system: T47D
[54] = test system: TK-10
[55] = test system: U-251
[56] = test system: UACC-257
[57] = test system: UACC-62

Compound: Cc1nc(SCC(=O)Nc2ccccc2)c2sc(=S)n(-c3ccccc3)c2n1
- GI50 [1]: 8.79 µM (inactive)
- GI50 [2]: > 10 µM (inactive)
- GI50 [3]: > 10 µM (inactive)
- GI50 [4]: > 10 µM (inactive)
- GI50 [5]: > 10 µM (inactive)
- GI50 [6]: > 10 µM (inactive)
- GI50 [7]: > 10 µM (inactive)
- GI50 [8]: > 10 µM (inactive)
- GI50 [9]: > 10 µM (inactive)
- GI50 [10]: > 10 µM (inactive)
- GI50 [11]: > 10 µM (inactive)
- GI50 [12]: > 10 µM (inactive)
- GI50 [13]: > 10 µM
- GI50 [14]: > 10 µM (inactive)
- GI50 [15]: 8.71 µM (inactive)
- GI50 [16]: > 10 µM (inactive)
- GI50 [17]: > 10 µM (inactive)
- GI50 [18]: 4.25 µM (inactive)
- GI50 [19]: > 10 µM (inactive)
- GI50 [20]: > 10 µM (inactive)
- GI50 [21]: > 10 µM (inactive)
- GI50 [22]: > 10 µM (inactive)
- GI50 [23]: > 10 µM (inactive)
- GI50 [24]: 6.18 µM (inactive)
- GI50 [25]: > 10 µM (inactive)
- GI50 [26]: > 10 µM (inactive)
- GI50 [27]: > 10 µM (inactive)
- GI50 [28]: > 10 µM (inactive)
- GI50 [29]: 2.9 µM (inactive)
- GI50 [30]: > 10 µM (inactive)
- GI50 [31]: > 10 µM (inactive)
- GI50 [32]: > 10 µM (inactive)
- GI50 [33]: > 10 µM (inactive)
- GI50 [34]: > 10 µM (inactive)
- GI50 [35]: 5.62 µM (inactive)
- GI50 [36]: > 10 µM (inactive)
- GI50 [37]: 9.12 µM (inactive)
- GI50 [38]: > 10 µM (inactive)
- GI50 [39]: > 10 µM (inactive)
- GI50 [40]: > 10 µM (inactive)
- GI50 [41]: > 10 µM (inactive)
- GI50 [42]: > 10 µM (inactive)
- GI50 [43]: 4.44 µM (inactive)
- GI50 [44]: > 10 µM (inactive)
- GI50 [45]: > 10 µM (inactive)
- GI50 [46]: > 10 µM (inactive)
- GI50 [47]: > 10 µM (inactive)
- GI50 [48]: > 10 µM (inactive)
- GI50 [49]: 8.41 µM (inactive)
- GI50 [50]: 3.19 µM (inactive)
- GI50 [51]: > 10 µM (inactive)
- GI50 [52]: > 10 µM (inactive)
- GI50 [53]: > 10 µM (inactive)
- GI50 [54]: > 10 µM (inactive)
- GI50 [55]: 8.87 µM (inactive)
- GI50 [56]: > 10 µM (inactive)
- GI50 [57]: > 10 µM (inactive)

— ChEMBL document CHEMBL1201862, “PubChem BioAssay data set” (2004)
